Like-named read-outs stand apart in the source and are kept apart here.
Experiments:
[1] = test system: T2635-resistant virus N113E; assay type: cell-based, HIV-1; conditions: means ± SD
[2] = test system: HIV-1 Bal; experiment: Inactivation of cell-free HIV-1 virions (PEG-6000 precipitation, p24 ELISA); assay type: cell-based; conditions: Human immunodeficiency virus 1, BAL; cell-free virions, 1 h at 4°C, PEG-6000 precipitation; read-out: EC50, inactivation of HIV-1 Bal
[3] = test system: T2635-resistant virus K90E N126K; assay type: cell-based, HIV-1; conditions: means ± SD
[4] = test system: T2635-resistant virus Q66R N113E; assay type: cell-based, HIV-1; conditions: inactivation of cell-free virions, means ± SD
[5] = test system: T2635-resistant virus K90E; assay type: cell-based, HIV-1; conditions: inactivation of cell-free virions, means ± SD
[6] = test system: T20-resistant virus V38A; assay type: cell-based, HIV-1; conditions: inactivation of cell-free virions, means ± SD
[7] = test system: T20-resistant virus V38A N42D; assay type: cell-based, HIV-1; conditions: inactivation of cell-free virions, means ± SD
[8] = test system: SM145/GS 016 (C, R5); experiment: Inactivation of cell-free HIV-1 clinical virus; assay type: cell-based; conditions: Human immunodeficiency virus 1, inactivation of cell-free virions, means ± SD
[9] = biological target: T1, 6HB formation between N36 and C34 (Human immunodeficiency virus type 1 group M subtype B, UniProt P04578); experiment: N-PAGE inhibition of six-helix bundle formation; assay type: biochemical, HIV-1; conditions: peptides 40 μM final
T1 construct: purchased NIH AIDS Reagent Program
T1 sequence (P04578 546-581): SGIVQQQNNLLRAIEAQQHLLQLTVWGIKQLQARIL
Method: The sample was mixed with Tris-glycine native sample buffer and then loaded onto the 18% Tris-glycine gel. Gel electrophoresis was carried out with 125 V constant voltage at room temperature for 3 h.

[10] = test system: 96USSN20 (A, R5 and X4); experiment: Inhibition of HIV-1 clinical virus infection; assay type: cell-based; conditions: Human immunodeficiency virus 1; HIV-1 clinical virus 96USSN20 (A, R5 and X4); means ± SD
[11] = test system: T2635-resistant virus N113E; assay type: cell-based, HIV-1; conditions: inactivation of cell-free virions, means ± SD
[12] = test system: D36G (NL4-3 WT); assay type: cell-based, HIV-1; conditions: inactivation of cell-free virions, T20-resistant panel D36G (NL4-3 WT); means ± SD
[13] = test system: HIV-1 IIIB; experiment: Inactivation of cell-free HIV-1 virions (PEG-6000 precipitation, p24 ELISA); assay type: cell-based; conditions: Human immunodeficiency virus 1, IIIB; cell-free virions, 1 h at 4°C, PEG-6000 precipitation; read-out: EC50, inactivation of HIV-1 IIIB
[14] = test system: T20-resistant virus V38A N42T; assay type: cell-based, HIV-1; conditions: inactivation of cell-free virions, means ± SD
[15] = test system: T20-resistant virus V38E N42S; assay type: cell-based, HIV-1; conditions: inactivation of cell-free virions, means ± SD
[16] = test system: T2635-resistant virus K90E; assay type: cell-based, HIV-1; conditions: means ± SD
[17] = test system: T2635-resistant virus Q66R N126K; assay type: cell-based, HIV-1; conditions: means ± SD
[18] = test system: T2635-resistant virus Q79E N126K; assay type: cell-based, HIV-1; conditions: means ± SD
[19] = test system: PBL288 (C, R5); experiment: Inactivation of cell-free HIV-1 clinical virus; assay type: cell-based; conditions: Human immunodeficiency virus 1, inactivation of cell-free virions, means ± SD
[20] = Cytotoxicity (CCK-8); assay type: cell-based; conditions: human
Method: Cell viability was detected following the instructions in the protocol provided in the cell counting kit-8 (CCK-8; Dojindo Molecular Technologies, Gaithersburg, MD, USA) as previously described ([Yang et al., 2018]). Briefly, MT-2 cells and CEMx174 517 5.25 M7 cells (3 × 10^4/well) were incubated with compounds at different concentrations at 37°C for 48 h. Then, the supernatant was discarded, and CCK8 diluted 10 times with fresh medium was added (200 μL/well). After 2–6 h of incubation at 37°C, the absorbance at 450 nm was measured using a microplate reader (Tecan, Männedorf, Switzerland).

CC1(C)CC(NC(=O)C(=O)Nc2ccc(Cl)c(F)c2)CC(C)(C)N1C(=O)COc1ccc(CCN2C(=O)/C(=C/c3ccc(-c4ccc(Cl)c(C(=O)O)c4)o3)SC2=S)cc1 [FD028, (Z)-2-Chloro-5-(5-((3-(4-(2-(4-(2-((4-Chloro-3-Fluorophenyl)amino)-2-oxoacetamido)-2,2,6,6-Tetramethylpiperidin-1-yl)-2-oxoethoxy)phenethyl)-4-oxo-2-Thioxothiazolidin-5-ylidene)methyl)furan-2-yl)benzoic Acid]
IC50 [1]: 570 ± 130 nM | EC50 [2]: 660 nM | IC50 [3]: 460 ± 110 nM | EC50 [4]: 360 ± 30 nM | EC50 [5]: 550 ± 230 nM | EC50 [6]: 780 ± 190 nM | EC50 [7]: 630 ± 140 nM | EC50 [8]: 960 ± 90 nM | IC50 [9]: 100000 to 200000 nM | IC50 [10]: 200 ± 10 nM | EC50 [11]: 1200 ± 160 nM | EC50 [12]: 410 ± 20 nM | EC50 [13]: 710 nM | EC50 [14]: 320 ± 110 nM | EC50 [15]: 490 ± 30 nM | IC50 [16]: 790 ± 280 nM | IC50 [17]: 320 ± 80 nM | IC50 [18]: 200 ± 70 nM | EC50 [19]: 540 ± 180 nM | CC50 at 48 h ([20]; CEMx174 5.25 M7 cells, read-out: CC50, CEMx174 5.25 M7 cell): 18200 nM | CC50 at 48 h ([20]; MT-2 cells, read-out: CC50, MT-2 cell): 29500 nM

From publication PMC7868322, “Rational Design of A Novel Small-Molecule HIV-1 Inactivator Targeting Both gp120 and gp41 of HIV-1” (Frontiers in Pharmacology, 2021)
